The text below walks through data of patent US7652006B2, “Substituted 1(2H)-phthalazinones and pharmaceutical compositions thereof” (Euro-Celtique S.A., priority 1998, dated 2010).

Structures can show the parent of a compound that is named as a salt. Where two headings read alike, the source gives them in different places.

In the experiment the target is AMPA receptors. Briefly: electrophysiological assay, AMPA receptors expressed in oocyte. The class given is cell-based, rat. An excerpt:
The compounds of the present invention may be assessed by electrophysiological assays in Xenopus oocytes expressing rat whole brain poly(A)^+ RNA (see Keana et. al. J. Med. Chem. 38: 4367-4379 (1995)) or in cultured rat cortical neurons (see Woodward et. al. Mol. Pharmacol. 47: 568-581 (1995)) for AMPA receptor activity. Compounds which are useful for treating or preventing the adverse consequences of stroke, hypoglycemia, neurodegenerative disorders, anxiety, epilepsy or psychosis, or which induce analgesia, will inhibit the currents across the membranes of the oocyte expressing AMPA receptors. However, if the compound potentiates currents across the oocyte membrane, then the compound is expected to be useful in enhancing cognition or treating schizophrenia or neurodegenerative disease such as Parkinson's Disease.
The potency of antagonism or potentiation for these compounds were determined by electrophysiological assay. Potencies of selective compounds described above in inhibiting or modulating AMPA receptors expressed in oocyte and their anticonvulsant activity against maximal electroshock induced convulsion are shown in Table 1.

[1] abbreviates: inhibiting or modulating AMPA receptors expressed in oocyte; read-out: AMPA IC50.

Consider `O=c1nc(-c2ccc3c(c2)OCO3)c2cc3c(cc2n1CCN1CCCCC1)OCO3` [1-(Piperidin-1-yl)ethyl-6,7-methylenedioxy-4-(3,4-methylenedioxyphenyl)quinazoline-2-one], for which the IC50 under setting [1] came out at 4 µM.

For `CCn1c(=O)nc(-c2cc3c(cc2[N+](=O)[O-])OCO3)c2cc3c(cc21)OCO3` [1-Ethyl-6,7-methylenedioxy-4-(3,4-methylenedioxy-6-nitrophenyl)quinazolin-2(1H)-one], the IC50 under setting [1] is 4.7 µM.

With `CCn1nc(-c2ccc3c(c2)OCO3)c2cc3c(cc2c1=O)OCO3` [2-Ethyl-4-(3,4-methylenedioxyphenyl)-6,7-methylenedioxy-1(2H) -phthalazinone], under setting [1], the IC50 was 3 µM.

With `CCOc1nc(-c2ccc3c(c2)OCO3)c2cc3c(cc2n1)OCO3` [2-Ethoxy-6,7-methylenedioxy-4-(3,4-methylenedioxyphenyl)-quinazoline], the IC50 under setting [1] is 6 µM.

Take `O=c1nc(-c2ccc3c(c2)OCO3)c2cc3c(cc2n1CC1CC1)OCO3` [1-cyclopropylmethyl-6,7-methylenedioxy-4-(3,4-methylenedioxyphenyl) quinazolin-2(1H)-one]: the IC50 under setting [1] was 6 µM.

`[O-][n+]1c(Cn2ccnc2)nc2ccc3c(c2c1-c1ccc2c(c1)OCO2)OCO3` [2-(1-Imidazolyl)methyl-5,6-methylenedioxy-4-(3,4-methylenedioxyphenyl)quinazoline 3-oxide hydrochloride]: the IC50 under setting [1] is 6 µM.

Regarding `CCOC(=O)CCn1nc(-c2ccc3c(c2)OCO3)c2cc3c(cc2c1=O)OCO3` [2-[2(ethoxycarbonyl)ethyl]-4-(3,4-methylenedioxyphenyl)-6,7-methylenedioxy-1(2H)-phthalazinone], the IC50 under setting [1] came to 3 µM.

In the case of `OCc1nc(-c2ccc3c(c2)OCO3)c2cc3c(cc2n1)OCO3` [2-Hydroxymethyl-6,7-methylenedioxy-4-(3,4-methylenedioxyphenyl)quinazoline], the IC50 under setting [1] turned out to be 6 µM.

Turning to `CC(C)n1c(=O)nc(-c2ccc3c(c2)OCO3)c2cc3c(cc21)OCCO3` [6,7-Ethylenedioxy-1-isopropyl-4-(3,4-methylenedioxyphenyl)quinazolin-2(1H)-one], the IC50 under setting [1] is 7 µM.

As for `O=c1nc(-c2ccc3c(c2)OCO3)c2cc3c(cc2n1CCO)OCO3` [1-[(2-Hydroxy)ethyl]-6,7-methylenedioxy-4-(3,4-methylenedioxyphenyl)quinazoline-2-one], under setting [1], the IC50 was determined as 1.5 µM.

As to `O=c1c2cc3c(cc2c(-c2ccc4c(c2)OCO4)nn1CCn1ccnc1)OCO3` [2-[2-(1-Imidazolyl)ethyl]-4-(3,4-methylenedioxyphenyl)-6,7-methylenedioxy-1(2H)-phthalazinone], the IC50 under setting [1] came to 6 µM.

Regarding `CC(C)(O)c1nc(-c2ccc3c(c2)OCO3)c2cc3c(cc2n1)OCO3` [6,7-methylenedioxy-4-(3,4-methylenedioxyphenyl)-2-(1-hydroxy-1-methylethyl)quinazoline], the IC50 under setting [1] worked out at 6 µM.

Regarding `CC(C)n1c(=O)nc(-c2ccc3c(c2)OCCO3)c2cc3oc(=O)n(C)c3cc21` [1-Isopropyl-4-(3,4-ethylenedioxyphenyl)-8-methyl-7-oxo-oxazol[5.4-g]quinazolin-2(1H)-one], the IC50 under setting [1] is 3.2 µM.

Take `CN(C)CCCCCOc1nc(-c2ccc3c(c2)OCO3)c2cc3c(cc2n1)OCO3` [2-[(3-Dimethylaminopropyl)ethoxy]-6,7-methylenedioxy-4-(3,4-methylenedioxyphenyl)quinazoline]: under setting [1], the IC50 was 12 µM.

As for `CCc1nc(-c2ccc3c(c2)OCO3)c2cc3c(cc2n1)OCO3` [2-Ethyl-4-(3,4-methylenedioxyphenyl)-6,7-methylenedioxyquinazoline], the IC50 under setting [1] was 4.3 µM.

Take `CCn1c(=O)nc(-c2ccc3ccccc3c2)c2cc3c(cc21)OCO3` [1-Ethyl-6,7-methylenedioxy-4-(2-naphthyl)quinazolin-2(1H)-one]: under setting [1], the IC50 is 5 µM.

For `COCCn1c(=O)nc(-c2ccc3c(c2)OCO3)c2cc3c(cc21)OCO3` [1-[(2-Methoxy)ethyl]-6,7-methylenedioxy-4-(3,4-methylenedioxyphenyl)quinazoline-2-one], under setting [1], the IC50 is 13 µM.

For `CN(C)CCc1nc(-c2ccc3c(c2)OCO3)c2cc3c(cc2n1)OCO3` [2-(2-Dimethylaminoethyl)-4-(3,4-methylenedioxyphenyl)-6,7-methylenedioxyquinazoline], the IC50 under setting [1] came to 8 µM.

In the case of `OCCOc1nc(-c2ccc3c(c2)OCO3)c2cc3c(cc2n1)OCO3` [2-[(2-Hydroxy)ethoxy]-6,7-methylenedioxy-4-(3,4-methylenedioxyphenyl)quinazoline], the IC50 under setting [1] was 4 µM.

On to `ClCCc1nc(-c2ccc3c(c2)OCO3)c2cc3c(cc2n1)OCO3` [2-(2-Chloroethyl)-6,7-methylenedioxy-4-(3,4-methylenedioxyphenyl)quinazoline], for which the IC50 (read-out: AMPA IC50; inhibiting or modulating AMPA receptors expressed in oocyte) was found to be 3 µM.

For the compound `ICc1nc(-c2ccc3c(c2)OCO3)c2cc3c(cc2n1)OCO3` [2-Iodomethyl-6,7-methylenedioxy-4-(3,4-methylenedioxyphenyl)quinazoline], under setting [1], the IC50 was found to be 7 µM.

With `[O-][n+]1c(CN2CCCC2)nc2cc3c(cc2c1-c1ccc2c(c1)OCO2)OCO3` [2-(Pyrrolidin-1-yl)methyl-6,7-methylenedioxy-4-(3,4-methylenedioxyphenyl)quinazoline-3-oxide], under setting [1], the IC50 worked out at 7 µM.

For `CN(C)CCCn1c(=O)nc(-c2ccc3c(c2)OCO3)c2cc3c(cc21)OCO3` [1-(3-Dimethylaminopropyl)-6,7-methylenedioxy-4-(3,4-methlenedioxyphenyl)quinazoline-2-one], the IC50 under setting [1] turned out to be 3 µM.

`CC(C)n1c(=O)nc(-c2ccc3c(c2)OCO3)c2cc3oc(=O)n(Cc4ccccc4)c3cc21` [1-Isopropyl-4-(3,4-methylenedioxyphenyl)-8-benzyl-7-oxo-oxazol[5,4-g]quinazolin-2(1H)-one]: the IC50 under setting [1] stood at 3 µM.

Take `Cc1nc(-c2ccc3c(c2)OCO3)c2cc3c(cc2n1)OCO3` [6,7-Methylenedioxy-4-(3,4-methylenedioxyphenyl)-2-methylquinazoline]: under setting [1], the IC50 was 4.5 µM.

As for `c1cc2c(cc1-c1nc(CN3CCNCC3)nc3cc4c(cc13)OCO4)OCO2` [6,7-Methylenedioxy-2-(piperazin-1-yl)methyl-4-(3,4-methylenedioxyphenyl)quinazoline], the IC50 under setting [1] worked out at 12 µM.

Consider `NCCn1c(=O)nc(-c2ccc3c(c2)OCO3)c2cc3c(cc21)OCO3` [1-(2-aminoethyl)-6,7-methylenedioxy-4-(3,4-methylenedioxyphenyl)quinazoline-2(1H)-one], for which the IC50 under setting [1] came out at 1 µM.

In the case of `ClCCCc1nc(-c2ccc3c(c2)OCO3)c2cc3c(cc2n1)OCO3` [2-(3-Chloropropyl)-4-(3,4-methylenedioxyphenyl)-6,7-methylenedioxyquinazoline], the IC50 under setting [1] came to 11 µM.

For “1-[2-(N-methylpyrrolidin-1-yl)ethyl]-6,7-methylenedioxy-4-(3,4-methylenedioxyphenyl)quinazoline-2-one”, the IC50 under setting [1] was 4 µM.

`O=c1nc(-c2ccc3c(c2)OCO3)c2cc3c(cc2n1CCN1CCCC1)OCO3` [1-(2-Pyrrolidinylethyl)-6,7-methylenedioxy-4(3,4-methylenedioxyphenyl)quinazolin-2(1H)-one]: the IC50 under setting [1] was 1.6 µM.

Turning to `CCn1c(=O)nc(-c2cc3c(cc2N)OCO3)c2cc3c(cc21)OCO3` [1-Ethyl-6,7-methylenedioxy-4-(2-amino-4,5-methylenedioxyphenyl)quinazolin-2(1H)-one], under setting [1], the IC50 amounted to 7 µM.
